The numbers were not newly measured in patent EP3520802A1, “PROCESS FOR EXTRACTING CURCUMINOIDS” (EFESON - Chemical Research & Engineering Development, priority 2018, dated 2019), which cites them from elsewhere.

For the data set the following is noted: non-clustered curcuminoid, usual value stated as background.

Turning to `COc1cc(/C=C/C(=O)CC(=O)/C=C/c2ccc(O)c(OC)c2)ccc1O` [Curcumin I, curcumin], the logP entry is “around 2.90”.
